Data as given in US20050020519A1, “Modulation of insulin-regulated aminopeptidase (irap)/angiotensin iv (at4) receptor activity” (priority 2001, published 2005).
Where two headings read alike, the source gives them in different places. Where a SMILES comes first, the peptide text is derived from it.

Experiments:
rat hippocampal slices = assay: Potassium-evoked ^3H-choline release from rat hippocampal slices; format: cell-based; conditions: at 10^−7M
Procedure: To determine the effect of IRAP inhibitors an acetylcholine release for rat hippocampal slices in vitro, rats were anaesthetized with sodium pentobarbitone, decapitated and the brain rapidly extracted and put on ice. The two sides of the hippocampus were then dissected, and stored in Krebs buffer on ice. The tissues were sectioned into 400 μm slices using a McI1wain slicer, and incubated with 10 μM of ^3H-choline in Krebs buffer for 20 min at 37° C. Following the incubation, the sections were transferred to Brandel superfusion chambers filled with carbogenated Krebs buffer, pH7.0 containing […] hemicholinium HC-3 to prevent choline reuptake. The slices were washed for 60 min at 37° C. with Krebs buffer at a flow rate of 500 μl/min. Superfusate samples were collected at 5 min intervals for the duration of the experiment. After a stable baseline was established, the hippocampal slices were depolarised by the addition of 30 mM KCl to the Krebs buffer and infused for 4 min (stimulation period S1). The tissue was then allowed to recover for 25 min before the next stimulation period (S2). To test the effect of […] […] Fractional ^3H-choline release, expressed as a ratio of S2/S1, was then calculated for each of the different peptides at the different doses.

[1] = conditions similar to the DNA synthesis experiments
SK-N-MC cells = assay: [^3H]-thymidine uptake in SK-N-MC cells; format: cell-based; conditions: Ang IV 10^−10-10^−7 M; LVVYPWTQRF 10^−10-10^−6 M
Procedure: (§1) NG108-15 and SK-N-MC cells were cultured in DMEM supplemented with 10% heat-inactivated FCS, 2% HAT supplement, and 100 U/ml penicillin/streptomycin. Cells were routinely used between passages 20 and 30.
(§2) Cells were plated at a density of 3×10^4 cells/well in 24 well Falcon plates that had been coated with 0.1 mg/ml poly-L-lysine hydrobromide. The cells were allowed to adhere overnight, and then serum deprived for 48 h before being treated with […] (SEQ ID NO:2) and/or Ang IV (10^−10 to 10^−6 M) for 24 h in medium with or without serum. Five hours before the end of the experiment 1 μCi of ^3H-thymidine was added to each well. At the completion of the incubation, cells were washed twice with 1 ml of PBS at 4° C., followed by 5% trichloroacetic acid at 4° C. for 30 min, which was aspirated before solubilizing the cells in 1 ml 0.25 M NaOH and 0.1% SDS for 30 min at 37° C. Samples were then collected into 5 ml of Ready Value scintillation fluid and ^3H measured in a liquid scintillation counter.

NG108-15 cells = assay: ^3H-thymidine incorporation in NG108-15 cells; format: cell-based, rat-mouse hybrid
Procedure: as §1, §2

rats [2] = conditions: intracerebroventricular dose 1 nmol; cited from earlier work
rats [3] = conditions: cited from earlier work
ERK1/2 phosphorylation [4] = assay: ERK1/2 phosphorylation in rat hippocampal slices (Western blot); format: cell-based; conditions: 10^−8M, 30 min
Procedure: The potential of IRAP/AT4 ligands to activate MAPK or CREB was initially investigated on rat hippocampal slices. Rats were killed by decapitation and the hippocampi removed, four hundred μm thick slices cut and incubated in aCSF. […] Slices were then lysed in 200 μl of ice-cold lysis buffer (10 mM Tris-HCl pH 7.5, 50 mM NaCl, 1% triton X-100, 30 mM sodium pyrophosphate, 50 mM NaF, 5 μM ZnCl2, 0.1 mM sodium orthovanadate, 1 mM DTT, 5 nM okadaic acid, 1×Boehringer Protease inhibitor cocktail) and centrifuged at full speed. The lysates were then heated at 95° C. for 10 min in 6×SDS loading buffer and the proteins (30 μg per lane) resolved on 7.5% SDS-poylacrylamide gels. After transfer of proteins to PVDF membranes, blots were probed overnight at 4° C. with anti phospho-p44/42 MAP kinase (Thr202/Tyr204) antibody and detected by chemiluminescence using ECL blotting detection reagents and a Fuji LAS-1000.

ERK1/2 phosphorylation [5] = test system: ERK1/2 phosphorylation
Procedure: The ability of AT4 ligands to stimiuladte MAPK phosphorylation directly was investigated in HEK293 cells transfected with human IRAP. HEK293 cells were transfected with pCI-IRAP or with empty vector, plated on to 12-well plates at a density of 60,000 cells/well and grown in complete medium containing 0.2% fetal calf serum. […] The proteins were then transferred on to nitrocellulose membranes and incubated with phospho-MAPK (p44/42) antibodies and visualised with HRP-conjugated secondary antibody, using the ECL-plus western blot detection system.

3T3L1 cells = assay: 2-deoxyglucose uptake in differentiated 3T3L1 adipocytes; conditions: for basal glucose uptake: no insulin, untreated 3.3±0.67
Procedure: The effect of IRAP inhibitors on the regulation of glucose uptake was determined in 3T3L1 cells. 3T3L1 fibroblasts were differentiated by the addition of DMEM containing 5% fetal calf serum, 4 μg/ml insulin, 0.25 mM dexamethasone and 0.5 mM 3-isobutyl-1-methyl-xanthine. […] The reaction was stopped after 10 min by washing the cells in PBS. The cells were then solubilized in 0.5 N NaOH and counted.

[6] = molecular target: T1, human insulin-regulated aminopeptidase (IRAP) / angiotensin IV (AT4) receptor (human, UniProt Q9UIQ6 1-1025); assay: competitive inhibition of L-leucine-β-naphthylamide cleavage by solubilised membranes of IRAP-transfected HEK 293 cells; Ki from IC50=Ki(1+[S]/Km)
T1 construct: whole, on cells; also called AT4 receptor/IRAP; hIRAP
T1 sequence (Q9UIQ6 whole entry): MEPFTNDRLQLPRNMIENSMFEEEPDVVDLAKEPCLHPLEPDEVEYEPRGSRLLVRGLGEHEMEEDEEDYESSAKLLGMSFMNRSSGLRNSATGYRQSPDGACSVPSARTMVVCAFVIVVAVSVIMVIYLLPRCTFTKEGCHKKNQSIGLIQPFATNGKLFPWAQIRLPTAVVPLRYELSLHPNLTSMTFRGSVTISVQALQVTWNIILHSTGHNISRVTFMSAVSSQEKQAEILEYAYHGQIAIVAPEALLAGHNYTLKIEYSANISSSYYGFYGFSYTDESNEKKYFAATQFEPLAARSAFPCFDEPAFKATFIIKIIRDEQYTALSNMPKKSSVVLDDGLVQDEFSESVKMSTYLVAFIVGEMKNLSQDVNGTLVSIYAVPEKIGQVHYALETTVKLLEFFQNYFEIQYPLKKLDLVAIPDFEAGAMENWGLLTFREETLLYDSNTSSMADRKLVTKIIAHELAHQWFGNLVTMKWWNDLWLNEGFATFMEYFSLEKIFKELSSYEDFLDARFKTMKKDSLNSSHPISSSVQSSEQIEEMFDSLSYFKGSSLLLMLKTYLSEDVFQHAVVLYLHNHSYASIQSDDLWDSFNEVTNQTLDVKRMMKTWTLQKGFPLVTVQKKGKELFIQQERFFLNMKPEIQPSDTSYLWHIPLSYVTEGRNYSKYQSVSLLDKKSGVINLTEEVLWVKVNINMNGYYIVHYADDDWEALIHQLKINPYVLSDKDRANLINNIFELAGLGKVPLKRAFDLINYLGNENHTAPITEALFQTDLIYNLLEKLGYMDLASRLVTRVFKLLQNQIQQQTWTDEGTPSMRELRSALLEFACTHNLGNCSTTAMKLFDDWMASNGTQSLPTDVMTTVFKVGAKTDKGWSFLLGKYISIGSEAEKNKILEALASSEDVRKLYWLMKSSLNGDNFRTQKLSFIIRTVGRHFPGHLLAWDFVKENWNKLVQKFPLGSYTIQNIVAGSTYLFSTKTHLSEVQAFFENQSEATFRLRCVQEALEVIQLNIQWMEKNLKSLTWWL

[7] = molecular target: T1, human insulin-regulated aminopeptidase …; assay: cell-based or functional assay
[8] = molecular target: T1, human insulin-regulated aminopeptidase …; assay: radioligand displacement of 125I-Nle-Ang IV

Molecule: CC[C@H](C)[C@H](NC(=O)[C@H](Cc1ccc(O)cc1)NC(=O)[C@@H](N)C(C)C)C(=O)N[C@@H](Cc1cnc[nH]1)C(=O)N1CCC[C@H]1C(=O)N[C@@H](Cc1ccccc1)C(=O)O [Ang IV, VYIHPF]
- maximum effect on potassium-evoked ^3H-choline release (rat hippocampal slices): 150 % of control
- degradation of the peptide [1]: some degradation
- increase of [^3H]-thymidine uptake (SK-N-MC cells): up to 72 % above control levels
- stimulation of DNA synthesis (NG108-15 cells; 10^−10 to 10^−6 M, alone): did not stimulate DNA synthesis
- effect on LVVYPWTQRF-stimulated ^3H-thymidine incorporation (NG108-15 cells; concomitant 10^−6 M Ang IV): completely abolished
- latency in re-entering the dark chamber after an aversive stimulus (rats [2]): increased the latency

Molecule: CCCC[C@H](N)C(=O)N[C@@H](Cc1ccc(O)cc1)C(=O)N[C@H](C(=O)N[C@@H](Cc1c[nH]cn1)C(=O)N1CCC[C@H]1C(=O)N[C@@H](Cc1ccccc1)C(=O)O)[C@@H](C)CC [Nle^1-Ang IV, Nle′-YIHPF] (HELM PEPTIDE1{[Nle].Y.I.H.P.F}$$$$V2.0; N-terminus and C-terminus assumed)
- performance in the swim maze task (rats [3]; chronic infusion (6 days), 0.1 to 0.5 nmol/h, lateral ventricle): enhanced performance
- memory deficits induced by scopolamine (rats [3]; given acutely into the lateral ventricles): reversed the memory deficits
- ERK1/2 phosphorylation (ERK1/2 phosphorylation [4]): induced phosphorylation of ERK1/2
- ERK1/2 phosphorylation (ERK1/2 phosphorylation [5]): induced the phosphorylation of ERK1/2
- insulin-stimulated glucose uptake (3T3L1 cells; 10^−6 M peptide with 0.7 nM insulin): 18.3 ± 2.39 pmol/min/well
- insulin-stimulated glucose uptake (3T3L1 cells; 10^−6 M peptide with 70 nM insulin): 23.02 ± 1.52 pmol/min/well
- basal glucose uptake (3T3L1 cells; 10^−6 M): 7.6±1.21 pmol/min/well
- insulin-stimulated glucose uptake (3T3L1 cells; 10^−7 M peptide with 0.7 nM insulin): 12.2 ± 2.29 pmol/min/well
- insulin-stimulated glucose uptake (3T3L1 cells; 10^−7 M peptide with 70 nM insulin): 22.99 ± 2.8 pmol/min/well
- basal glucose uptake (3T3L1 cells; 10^−7 M): 7.2±1.79 pmol/min/well
- increase of basal glucose uptake (3T3L1 cells; both concentrations (10^−7 and 10^−6 M)): two-fold

B1: LVV-hemorphin 7 (LVVYPWTQRF) (peptide)
peptide: LVVYPWTQRF
notes: Globin fragment purified from sheep cerebral cortex; synthetic peptide used in the assays; also called LVV-H7; LV-H7
- Ki [6]: 845 nM
- IC50 inhibition leucine β-naphthylamide [7]: 1500 nM
- IC50 [8]: 140 nM
